{
  "source": "patent US20230391761A1",
  "about": "“S[…]-ALANINATE DERIVATIVES” (BAYER AKTIENGESELLSCHAFT, priority 2021, published 2023)",
  "experiment": "Solubility in Citrate Buffer pH 4",
  "details": "25 °C, pH 4, aqueous buffer, thermodynamic from solid",
  "procedure": "25 mg compound are placed in 2 ml solvent. […] Thereafter, the solution or suspension is filtered and the remaining solution is analyzed via HPLC. The solubility is determined by comparison of the total area of the substance peak to a calibration curve (external standard).\nThereafter, the solution was centrifuged and analyzed via HPLC. The solubility was determined by comparison of the total area of the substance peak to a calibration curve (external standard). The measurements were conducted in triplicates.",
  "data": [
    {"smiles": "CCc1c(N2CC[C@H](O)C2=O)cccc1S(=O)(=O)N[C@@H](CNC(=O)c1ccc(Cl)s1)C(=O)OCCc1nccn1C.Cl", "note": "[Example 2, 2-(1-Methyl-1H-imidazol-2-yl)ethyl 3-[(5-chlorothiophene-2-carbonyl)amino]-N-{2-ethyl-3-[(3S)-3-hydroxy-2-oxopyrrolidin-1-yl]benzene-1-sulfonyl}-S-alaninate hydrochloride]", "values": [
      {"measurement": "solubility at 24 h", "result": "> 500", "unit": "mg/mL"}
    ]}
  ]
}
